Measured values: ChEMBL document CHEMBL1201862, “PubChem BioAssay data set” (2004)
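Growth conditions: 96-well plates. Treatment: test compound, 48 hours, 5 concentrations. Analysis: linear interpolation between bracketing concentrations; unreached endpoints set to highest concentration. GI50 = concentration required for 50% inhibition of growth.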 The source made the active and inactive calls. No stated cut-off is given here; in the data, active = GI50 up to about 1.1 µM and inactive = higher.

What was measured:
Assay in all cases: NCI-60 cell line screen, 48 h
[1] = tested on: 786-0
[2] = tested on: A498
[3] = tested on: A549
[4] = tested on: ACHN
[5] = tested on: BT-549
[6] = tested on: CAKI-1
[7] = tested on: COLO 205
[8] = tested on: DU-145
[9] = tested on: EKVX
[10] = tested on: HCT-116
[11] = tested on: HCT-15
[12] = tested on: HOP-62
[13] = tested on: HOP-92
[14] = tested on: HT-29
[15] = tested on: Hs-578T
[16] = tested on: IGROV-1
[17] = tested on: K562
[18] = tested on: KM12
[19] = tested on: M14
[20] = tested on: MCF7
[21] = tested on: MDA-MB-231
[22] = tested on: MDA-MB-435
[23] = tested on: MDA-N
[24] = tested on: Malme-3M
[25] = tested on: NCI-H226
[26] = tested on: NCI-H23
[27] = tested on: NCI-H460
[28] = tested on: NCI-H522
[29] = tested on: NCI/ADR-RES
[30] = tested on: OVCAR-3
[31] = tested on: OVCAR-4
[32] = tested on: OVCAR-5
[33] = tested on: OVCAR-8
[34] = tested on: PC-3
[35] = tested on: RPMI-8226
[36] = tested on: RXF 393
[37] = tested on: SF-268
[38] = tested on: SF-295
[39] = tested on: SF-539
[40] = tested on: SK-MEL-28
[41] = tested on: SK-MEL-2
[42] = tested on: SK-MEL-5
[43] = tested on: SK-OV-3
[44] = tested on: SN12C
[45] = tested on: SNB-19
[46] = tested on: SNB-75
[47] = tested on: SW-620
[48] = tested on: T47D
[49] = tested on: TK-10
[50] = tested on: U-251
[51] = tested on: UACC-257
[52] = tested on: UACC-62
[53] = tested on: UO-31
[54] = tested on: HCC 2998
[55] = tested on: LOX IMVI
[56] = tested on: MOLT-4

Compound: Cc1cc([N+](=O)[O-])c(C)c(Br)c1C
- GI50 [1]: > 100 µM (inactive)
- GI50 [2]: > 100 µM (inactive)
- GI50 [3]: > 100 µM (inactive)
- GI50 [4]: > 100 µM (inactive)
- GI50 [5]: > 100 µM (inactive)
- GI50 [6]: > 100 µM (inactive)
- GI50 [7]: > 100 µM (inactive)
- GI50 [8]: > 100 µM (inactive)
- GI50 [9]: 70.8 µM (inactive)
- GI50 [10]: > 100 µM (inactive)
- GI50 [11]: > 100 µM
- GI50 [12]: > 100 µM (inactive)
- GI50 [13]: 62.2 µM (inactive)
- GI50 [14]: > 100 µM (inactive)
- GI50 [15]: 42.8 µM (inactive)
- GI50 [16]: > 100 µM (inactive)
- GI50 [17]: > 100 µM (inactive)
- GI50 [18]: > 100 µM (inactive)
- GI50 [19]: > 100 µM (inactive)
- GI50 [20]: > 100 µM (inactive)
- GI50 [21]: > 100 µM (inactive)
- GI50 [22]: > 100 µM (inactive)
- GI50 [23]: > 100 µM (inactive)
- GI50 [24]: > 100 µM (inactive)
- GI50 [25]: > 100 µM (inactive)
- GI50 [26]: > 100 µM (inactive)
- GI50 [27]: > 100 µM (inactive)
- GI50 [28]: > 100 µM (inactive)
- GI50 [29]: > 100 µM (inactive)
- GI50 [30]: > 100 µM (inactive)
- GI50 [31]: > 100 µM (inactive)
- GI50 [32]: > 100 µM (inactive)
- GI50 [33]: > 100 µM (inactive)
- GI50 [34]: > 100 µM (inactive)
- GI50 [35]: > 100 µM (inactive)
- GI50 [36]: 60.5 µM (inactive)
- GI50 [37]: > 100 µM (inactive)
- GI50 [38]: > 100 µM (inactive)
- GI50 [39]: > 100 µM (inactive)
- GI50 [40]: > 100 µM (inactive)
- GI50 [41]: > 100 µM (inactive)
- GI50 [42]: > 100 µM (inactive)
- GI50 [43]: > 100 µM (inactive)
- GI50 [44]: > 100 µM (inactive)
- GI50 [45]: > 100 µM (inactive)
- GI50 [46]: 25.2 µM (inactive)
- GI50 [47]: > 100 µM (inactive)
- GI50 [48]: 71 µM (inactive)
- GI50 [49]: > 100 µM (inactive)
- GI50 [50]: > 100 µM (inactive)
- GI50 [51]: > 100 µM (inactive)
- GI50 [52]: > 100 µM (inactive)
- GI50 [53]: > 100 µM (inactive)

Compound: CC(/C=N\NC(=S)N(C)C)=N/NC(=S)N(C)C
- GI50 [1]: 0.509 µM (active)
- GI50 [2]: 2.88 µM (inactive)
- GI50 [3]: 0.142 µM (active)
- GI50 [4]: 0.113 µM (active)
- GI50 [5]: 1.93 µM (inactive)
- GI50 [6]: 0.815 µM (active)
- GI50 [7]: 0.497 µM (active)
- GI50 [8]: 0.195 µM (active)
- GI50 [9]: 0.832 µM (active)
- GI50 [54]: 2.49 µM (inactive)
- GI50 [10]: 0.117 µM (active)
- GI50 [11]: 0.07 µM
- GI50 [12]: 0.327 µM (active)
- GI50 [13]: 1.84 µM (inactive)
- GI50 [14]: 0.0995 µM (active)
- GI50 [15]: 1.65 µM (inactive)
- GI50 [16]: 0.575 µM (active)
- GI50 [17]: 0.582 µM (active)
- GI50 [18]: 1.78 µM (inactive)
- GI50 [55]: 0.273 µM (active)
- GI50 [19]: 0.393 µM (active)
- GI50 [20]: 0.759 µM (active)
- GI50 [21]: 29 µM (inactive)
- GI50 [22]: 0.881 µM (active)
- GI50 [23]: 8.93 µM (inactive)
- GI50 [56]: 0.0397 µM (active)
- GI50 [24]: 0.995 µM (active)
- GI50 [25]: 0.843 µM (active)
- GI50 [26]: 1.12 µM (inactive)
- GI50 [27]: 0.0412 µM (active)
- GI50 [28]: 0.243 µM (active)
- GI50 [29]: 0.202 µM (active)
- GI50 [30]: 0.317 µM (active)
- GI50 [31]: 5.16 µM (inactive)
- GI50 [32]: 10.9 µM (inactive)
- GI50 [33]: 0.308 µM (active)
- GI50 [34]: 0.577 µM (active)
- GI50 [35]: 0.791 µM (active)
- GI50 [36]: 0.586 µM (active)
- GI50 [37]: 0.251 µM (active)
- GI50 [38]: 0.147 µM (active)
- GI50 [39]: 0.74 µM (active)
- GI50 [40]: 4.52 µM (inactive)
- GI50 [41]: 0.303 µM (active)
- GI50 [42]: 0.505 µM (active)
- GI50 [43]: 0.484 µM (active)
- GI50 [44]: 0.951 µM (active)
- GI50 [45]: 0.721 µM (active)
- GI50 [46]: 0.557 µM (active)
- GI50 [47]: 0.0832 µM (active)
- GI50 [48]: 0.0935 µM (active)
- GI50 [49]: 0.507 µM (active)
- GI50 [50]: 0.29 µM (active)
- GI50 [51]: 2.61 µM (inactive)
- GI50 [52]: 0.764 µM (active)
- GI50 [53]: 0.158 µM (active)
